# Reference: patent US20140371074A1, “METHOD TO INCREASE PLANT YIELD” (priority 2012, published 2014)
# Tests used:
# Type in all cases: in vivo
# soybean variety L2438R2 = assay: Field: seed treatment with 2,4-D mixture 0.01-0.09 ounces per 100 pounds of seed, Laurel, Iowa (Table 7)
# Method: Previously untreated soybean seeds were treated with between 0.01 ounces to 0.09 ounces of 2,4-D solution per 100 pounds of seed, in which 0.01 ounces is equivalent to 0.0002968 pounds acid equivalent of 2,4-D. The seed variety was L2438R2 and seeds were planted in Laurel, Iowa with a row width of 50 inches. Four rows were planted and the middle two rows were harvested.
# [1] = test system: Soybean variety Latham EX32124 CystX; assay: Greenhouse: 2,4-D LV4 drizzled onto soil of potted plants, pod and node counts; settings: for Average pods per normal node / Megacluster nodes / Normal nodes / Total nodes with pods / Pods on megacluster nodes / Pods on normal nodes / Average pods per megacluster node: 2 plants/pot; for Pods on megacluster nodes / Pods on normal nodes / Total pods per pot (2 plants): immature pods
# Method: Soybean variety ‘Latham EX32124 CystX’ was planted in 8.5 inch diameter pots and grown under lights in a greenhouse. Four seeds each were planted and later thinned to 2 plants per plot for each of 5 treatment rates of 0.47, 0.94, 1.88, 3.76, and 7.52 pounds a.e. of 2,4-D per acre. […] When the soybean plants were at the stage of growth in which pods are 3/16 inch length at one of the two uppermost nodes, the number of beginning pods was observed.
# At this stage, household fertilizer was added to the plants along with water, and the number of nodes and pods was observed approximately ten days later, as shown in Table 3. Pod counts were for 2 plants per pot.
# [2] = test system: soybean variety Asgrow 2933; assay: Field: side dress with 2,4-D Low Vol 4 solution, Laurel, Iowa (Table 3); settings: for Percent of control: yield vs untreated control
# Method: Plants were grown from Roundup Ready variety Asgrow 2933 seed that was treated with accelron (Monsanto) prior to planting. Plants were side dressed by application with a 3-point cultivator modified to spray on the ground in front of the shanks, the shanks then mix the 2,4-D mixture with the soil and move the mixture closer to the plant roots. Plants were treated with between 1X and 4X of 2,4-D Low Vol 4 solution, where 1X is equivalent to approximately 0.19 pounds acid equivalent of 2,4-D. Plants were grown with a row width of 30 inches and row length of 562 feet.
# [3] = 0.01 ounces per 100 pounds of seed
# [4] = 0.02 ounces per 100 pounds of seed
# [5] = 0.03 ounces per 100 pounds of seed
# [6] = 0.04 ounces per 100 pounds of seed
# [7] = 0.05 ounces per 100 pounds of seed
# [8] = 0.06 ounces per 100 pounds of seed
# [9] = 0.07 ounces per 100 pounds of seed
# [10] = 0.08 ounces per 100 pounds of seed
# [11] = 0.09 ounces per 100 pounds of seed
# [12] = 1X side dress (1X~0.19 lb a.e.)
# [13] = 2X side dress (1X~0.19 lb a.e.)
# [14] = 3X side dress (1X~0.19 lb a.e.)
# [15] = 4X side dress (1X~0.19 lb a.e.)
structure (smiles),measurement,setting,value
"O=C(O)COc1ccc(Cl)cc1Cl [2,4-D, 2,4-Dichlorophenoxyacetic acid]",Repetition 1 Total weight,soybean variety L2438R2; [3],14.80 pounds
same,Repetition 1 Yield,soybean variety L2438R2; [3],46.49 Bu/acre
same,Repetition 2 Total weight,soybean variety L2438R2; [3],15.60 pounds
same,Repetition 2 Yield,soybean variety L2438R2; [3],48.92 Bu/acre
same,Total yield (total average yield),soybean variety L2438R2; [3],47.70 Bu/acre
same,Repetition 1 Total weight,soybean variety L2438R2; [4],15.90 pounds
same,Repetition 1 Yield,soybean variety L2438R2; [4],50.21 Bu/acre
same,Repetition 2 Total weight,soybean variety L2438R2; [4],16.10 pounds
same,Repetition 2 Yield,soybean variety L2438R2; [4],50.65 Bu/acre
same,Total yield (total average yield),soybean variety L2438R2; [4],50.43 Bu/acre
same,Repetition 1 Total weight,soybean variety L2438R2; [5],15.60 pounds
same,Repetition 1 Yield,soybean variety L2438R2; [5],49.26 Bu/acre
same,Repetition 2 Total weight,soybean variety L2438R2; [5],14.90 pounds
same,Repetition 2 Yield,soybean variety L2438R2; [5],47.12 Bu/acre
same,Total yield (total average yield),soybean variety L2438R2; [5],48.19 Bu/acre
same,Repetition 1 Total weight,soybean variety L2438R2; [6],16.40 pounds
same,Repetition 1 Yield,soybean variety L2438R2; [6],49.46 Bu/acre
same,Repetition 2 Total weight,soybean variety L2438R2; [6],15.90 pounds
same,Repetition 2 Yield,soybean variety L2438R2; [6],47.45 Bu/acre
same,Total yield (total average yield),soybean variety L2438R2; [6],48.45 Bu/acre
same,Repetition 1 Total weight,soybean variety L2438R2; [7],16.10 pounds
same,Repetition 1 Yield,soybean variety L2438R2; [7],47.48 Bu/acre
same,Repetition 2 Total weight,soybean variety L2438R2; [7],16.00 pounds
same,Repetition 2 Yield,soybean variety L2438R2; [7],49.21 Bu/acre
same,Total yield (total average yield),soybean variety L2438R2; [7],48.35 Bu/acre
same,Repetition 1 Total weight,soybean variety L2438R2; [8],15.50 pounds
same,Repetition 1 Yield,soybean variety L2438R2; [8],46.85 Bu/acre
same,Repetition 2 Total weight,soybean variety L2438R2; [8],14.90 pounds
same,Repetition 2 Yield,soybean variety L2438R2; [8],45.78 Bu/acre
same,Total yield (total average yield),soybean variety L2438R2; [8],46.31 Bu/acre
same,Repetition 1 Total weight,soybean variety L2438R2; [9],14.50 pounds
same,Repetition 1 Yield,soybean variety L2438R2; [9],44.99 Bu/acre
same,Repetition 2 Total weight,soybean variety L2438R2; [9],14.90 pounds
same,Repetition 2 Yield,soybean variety L2438R2; [9],46.13 Bu/acre
same,Total yield (total average yield),soybean variety L2438R2; [9],45.56 Bu/acre
same,Repetition 1 Total weight,soybean variety L2438R2; [10],13.40 pounds
same,Repetition 1 Yield,soybean variety L2438R2; [10],41.93 Bu/acre
same,Repetition 2 Total weight,soybean variety L2438R2; [10],14.30 pounds
same,Repetition 2 Yield,soybean variety L2438R2; [10],44.99 Bu/acre
same,Total yield (total average yield),soybean variety L2438R2; [10],43.46 Bu/acre
same,Repetition 1 Total weight,soybean variety L2438R2; [11],14.90 pounds
same,Repetition 1 Yield,soybean variety L2438R2; [11],46.40 Bu/acre
same,Repetition 2 Total weight,soybean variety L2438R2; [11],14.00 pounds
same,Repetition 2 Yield,soybean variety L2438R2; [11],43.83 Bu/acre
same,Total yield (total average yield),soybean variety L2438R2; [11],45.12 Bu/acre
same,Repetition 1 Total weight,soybean variety L2438R2; Average over 0.01-0.09 ounces,15.23 pounds
same,Repetition 1 Yield,soybean variety L2438R2; Average over 0.01-0.09 ounces,47.01 Bu/acre
same,Repetition 2 Total weight,soybean variety L2438R2; Average over 0.01-0.09 ounces,15.18 pounds
same,Repetition 2 Yield,soybean variety L2438R2; Average over 0.01-0.09 ounces,47.12 Bu/acre
same,Total yield (total average yield),soybean variety L2438R2; Average over 0.01-0.09 ounces,47.06 Bu/acre
same,Beginning pods,[1]; 0.47 lbs a.e. per acre,Normal
same,Average pods per normal node,[1]; 0.47 lbs a.e.,3.9
same,Megacluster nodes,[1]; 0.47 lbs a.e.,0
same,Normal nodes,[1]; 0.47 lbs a.e.,7
same,Total nodes with pods,[1]; 0.47 lbs a.e.,7
same,Pods on megacluster nodes,[1]; 0.47 lbs a.e.,0
same,Pods on normal nodes,[1]; 0.47 lbs a.e.,27
same,Total pods per pot (2 plants),[1]; 0.47 lbs a.e.,27
same,Beginning pods,[1]; 0.94 lbs a.e. per acre,huge clusters of pods (megaclusters)
same,Average pods per megacluster node,[1]; 0.94 lbs a.e.,12.5
same,Average pods per normal node,[1]; 0.94 lbs a.e.,3.6
same,Megacluster nodes,[1]; 0.94 lbs a.e.,6
same,Normal nodes,[1]; 0.94 lbs a.e.,5
same,Total nodes with pods,[1]; 0.94 lbs a.e.,11
same,Pods on megacluster nodes,[1]; 0.94 lbs a.e.,75
same,Pods on normal nodes,[1]; 0.94 lbs a.e.,18
same,Total pods per pot (2 plants),[1]; 0.94 lbs a.e.,93
same,number of pods versus untreated plants,"[1]; 0.94 pounds a.e. of 2,4-D",over double the number of pods
same,total number of pods per plant compared to the control,"[1]; 1.88, 3.76, and 7.52 pounds a.e. of 2,4-D per acre",increased total number of pods per plant
same,Beginning pods,[1]; 1.88 lbs a.e. per acre,huge clusters of pods (megaclusters)
same,Average pods per megacluster node,[1]; 1.88 lbs a.e.,6.0
same,Average pods per normal node,[1]; 1.88 lbs a.e.,3.4
same,Megacluster nodes,[1]; 1.88 lbs a.e.,5
same,Normal nodes,[1]; 1.88 lbs a.e.,5
same,Total nodes with pods,[1]; 1.88 lbs a.e.,10
same,Pods on megacluster nodes,[1]; 1.88 lbs a.e.,30
same,Pods on normal nodes,[1]; 1.88 lbs a.e.,17
same,Total pods per pot (2 plants),[1]; 1.88 lbs a.e.,49
same,Beginning pods,[1]; 3.76 lbs a.e. per acre,Normal
same,Average pods per megacluster node,[1]; 3.76 lbs a.e.,9.0
same,Average pods per normal node,[1]; 3.76 lbs a.e.,4.8
same,Megacluster nodes,[1]; 3.76 lbs a.e.,3
same,Normal nodes,[1]; 3.76 lbs a.e.,5
same,Total nodes with pods,[1]; 3.76 lbs a.e.,8
same,Pods on megacluster nodes,[1]; 3.76 lbs a.e.,27
same,Pods on normal nodes,[1]; 3.76 lbs a.e.,24
same,Total pods per pot (2 plants),[1]; 3.76 lbs a.e.,51
same,Beginning pods,[1]; 7.52 lbs a.e. per acre,Normal
same,Average pods per megacluster node,[1]; 7.52 lbs a.e.,9.0
same,Average pods per normal node,[1]; 7.52 lbs a.e.,3.6
same,Megacluster nodes,[1]; 7.52 lbs a.e.,2
same,Normal nodes,[1]; 7.52 lbs a.e.,7
same,Total nodes with pods,[1]; 7.52 lbs a.e.,9
same,Pods on megacluster nodes,[1]; 7.52 lbs a.e.,18
same,Pods on normal nodes,[1]; 7.52 lbs a.e.,25
same,Total pods per pot (2 plants),[1]; 7.52 lbs a.e.,43
same,leaf damage,[1]; 7.52 pounds a.e. rate,some yellowing of leaves
same,pod set,"[1]; between 0.47 and 7.52 pounds a.e. of 2,4-D per acre",excessive numbers of pods at every node
same,"mature slower and stay greener, longer than untreated plants","[1]; treated plants, 0.47-7.52 pounds a.e. per acre",approximately 2 weeks
same,Yield (Bushels/acre at 13% moisture),[2]; [12],58.3 Bushels/acre
same,Harvested weight,"[2]; 1X side dress (1X~0.19 lb a.e.), 12 rows",1292 g
same,Percent of control,[2]; [12],110%
same,Yield (Bushels/acre at 13% moisture),[2]; [13],68.3 Bushels/acre
same,Harvested weight,"[2]; 2X side dress (1X~0.19 lb a.e.), 8 rows",1016 g
same,Percent of control,[2]; [13],130%
same,Yield (Bushels/acre at 13% moisture),[2]; [14],62.8 Bushels/acre
same,Harvested weight,"[2]; 3X side dress (1X~0.19 lb a.e.), 16 rows",1844 g
same,Percent of control,[2]; [14],120%
same,Yield (Bushels/acre at 13% moisture),[2]; [15],70.8 Bushels/acre
same,Harvested weight,"[2]; 4X side dress (1X~0.19 lb a.e.), 16 rows",2088 g
same,Percent of control,[2]; [15],135%
same,plant yield (in words),[2]; side dress treatment 1X-4X vs untreated,greatly increases plant yield
